# Measured values as given in article PMC12214830, “The human RIF1-Long isoform interacts with BRCA1 to promote recombinational fork repair under DNA replication stress” (Nature Communications, 2025).
# “Also recorded” adds a separate entry of the source. Non-standard residues stand in square brackets, D forms with d. No end group written: not given here. pS = N[C@@H](COP(=O)(O)O)C(=O)O
# What was measured:
# [1] = tested on: RIF1-BRCA1 proximity in RPE-1 cells; experiment: RIF1-BRCA1 proximity ligation assay, RPE-1 cells; format: cell-based, human
# Description: (§1) Proximity ligation assays were performed using the Duolink In Situ PLA Fluorescence Protocol (Sigma-Aldrich, DUO92101) following the manufacturer’s instruction. Cells were grown on glass coverslips and treated as indicated for specific experiments. Cells were then permeabilized with 0.5% TritonX-100 in PBS for 10 min on ice, and fixed with 3% formaldehyde, 2% sucrose in PBS for 10 min at room temperature (RT). After fixation, coverslips were blocked in 3% BSA in PBS for 1 h at RT and incubated with primary antibodies (anti-RIF1, Bethel laboratories A300-568A, 1:1000 dilution; anti-BRCA1, Santa Cruz Biotechnologies, sc-6954, 1:200 dilution), for 1 h at RT in a humidity chamber. Primary antibodies were then washed off with PLA washing buffer A supplied in the Duolink In Situ PLA kit. Coverslips were next incubated sequentially with PLA Probes (1 h at 37 °C), ligation solution (30 min at 37 °C) and amplification solution (100 min at 37 °C), with washes by washing buffer A in between each step. At the end of incubation, coverslips were washed with washing buffer B supplied in the Duolink In Situ PLA kit. Coverslips were then mounted on glass slides with PLA Mounting medium with DAPI. Images were captured by fluorescence microscopy (Zeiss Axio Imager). PLA foci number in each nucleus were analysed by CellProfiler Software[74] with a custom-made pipeline.
# For EdU labelling combined with proximity ligation assay, cells were labelled with 10 µM EdU for 15 min, washed free of EdU and next incubated with medium containing 4 mM HU medium for 4 h. Cells were then permeabilized, fixed and subjected to RIF1-BRCA1 PLA procedures. After all PLA steps, EdU detection was performed following manufacturer’s instructions in the Click-iT EdU Imaging Kit (Invitrogen, C10640).
# (§2) For proximity ligation assays and immunofluorescence signal intensity measurements, when comparing between two samples, statistical significance of differences was calculated by Mann-Whitney test for non-parametric distributions using GraphPad Prism software (v.9). When comparing among three or more samples, p values were calculated by Kruskal-Wallis test for non-parametric distributions with Dunn’s multiple comparisons using GraphPad Prism software (v.9). For RIF1 foci formation analysis (Fig. 6B), p values were calculated by two-tailed Student’s t test. For nuclear BRCA1 intensity fold change analyses (Fig. 6C, D), p values were calculated by two-tailed one-sample t test using GraphPad Prism software (v.9). For RAD51 foci formation analyses (Fig. 7B, E and Supplementary Fig. 7B), p values were calculated by chi-square test. For HR Reporter assay analysis (Fig. 7G and Supplementary Fig. 7L), p values were calculated by two-tailed paired Student’s t test. For micronuclei frequency analysis (Fig. 7H), p values were calculated by one-tailed paired Student’s t test. All Student’s t tests were performed with Excel T.TEST function. Chi-square tests were performed with the online Chi-square test calculator at https://www.socscistatistics.com/tests/chisquare2/default2.aspx. Sample number n for all box-and-whisker plots and dot plots are listed in Supplementary Data 1.
# RIF1-L phosphoS2265 = experiment: Western blot, RIF1-L phosphoS2265, HeLa cells; format: cell-based, human
# Description: Cells were harvested in 10 mM Tris-HCl pH 7.5, 2 mM EDTA buffer and lysed with laemmli sample buffer (Bio-Rad, 1610737, supplemented with 5% β-mercaptoethanol). Samples were heated at 95 °C for 15 min and centrifuged at 13,000 × g for 15 min. Protein concentrations were measured by RC DC Protein Assay (Bio-Rad, 5000122). Equal amounts of total proteins for each sample were separated in Mini-PROTEAN TGX Stain-free Precast Gels (Bio-Rad) by SDS-PAGE. Gels were at this stage imaged with the ChemiDoc Touch Imaging System (Bio-Rad) using the ‘Protein gel – Stain free’ module to obtain stain-free gel images. Proteins on gel were transferred to PVDF membranes (Bio-Rad, 1704274) using the Trans-Blot Turbo Blotting System (Bio-Rad). Membranes were blocked in 3% BSA in TBS-T (1x TBS supplemented with 0.1% Tween-20) at RT for 1 h, followed by incubation with primary antibodies overnight at 4 °C. Membranes were washed with TBS-T and then incubated with secondary antibodies for 1 h at RT. The blots were developed with Clarity ECL reagents (Bio-Rad, 1705060) and imaged with the ChemiDoc Touch Imaging System (Bio-Rad). Primary antibodies used for western blotting include anti-RIF1 (Bethyl Laboratories, A300-568A. 1:5000); anti-RIF1-L-Phospho-S2265 (amsbio, custom. 1:5000); anti-BRCA1 (D-9) (Santa Cruz Biotechnology, sc-6954. 1:1000); anti-BARD1 (Bethyl Laboratories, A300-263A. 1:1000); anti-53BP1 (Novus Biologicals, NB100-94. 1:5000); anti-PP1α (G4) (Santa Cruz Biotechnology, sc-271762. 1:1000); anti-Tubulin (YOL1/34) (Santa Cruz Biotechnology, sc-53030. 1:4000); anti-FLAG (M2) (Sigma-Aldrich, F1804. 1:2000); anti-GFP (Chromotek, 3h9. 1:2000); anti-RFP (Chromotek, 5f8. 1:2000). Uncropped and unprocessed Western Blot images are provided in the Source Data file.
# [2] = tested on: RIF1-BRCA1 proximity in HeLa cells; experiment: RIF1-BRCA1 proximity ligation assay, HeLa cells; format: cell-based, human; conditions: HeLa +RIF1-L
# Description: as §1, §2
# BRCA1 nuclear signal = experiment: BRCA1 nuclear immunofluorescence intensity, HeLa cells; format: cell-based, human
# Description: Cells were grown on glass coverslips and treated as desired. Cells were then permeabilized with 0.5% TritonX-100 in PBS for 7 min on ice, and fixed with 4% w/v formaldehyde solution (Sigma HT5012) for 10 min at room temperature (RT). After fixation, coverslips were blocked with 3% BSA in PBS (RT, 1 h), incubated with primary antibodies (RT, 2 h), washed with PBS three times and incubated with secondary antibodies (RT, 1 h). Primary antibodies used for immunofluorescence include anti-γH2A.X (20E3) (Cell Signalling Technology, 9718. 1:500); anti-RPA32/RPA2 (9H8) (Abcam, ab2175. 1:200); anti-RAD51 (H92) (Santa Cruz Biotechnology, sc-8349. 1:100); anti-BrdU (B44) (BD Biosciences, 347580. 1:100); Coverslips were then mounted on glass slides with mounting medium with DAPI. Images were captured by either standard (Zeiss Axio Imager) or confocal (Zeiss LSM-880) microscopy. Fluorescence signal intensities within each nucleus were analysed by CellProfiler software with custom-made pipelines. […]
# as §2, with “All Student’s t tests were performed with Excel T.TEST function. Chi-square tests were performed with the online Chi-square test calculator at https://www.socscistatistics.com/tests/chisquare2/default2.aspx. Sample number n for all box-and-whisker plots and dot plots are listed in Supplementary Data 1.” left out
# micronuclei = micronuclei frequency, HeLa cells; format: cell-based, human; conditions: Fig.7H
# Description: as §2
# [3] = target: BRCA1 C-terminal tandem BRCT domains (UniProt P38398); experiment: fluorescence polarisation titration; conditions: reference: pS2265 peptide, untreated; sites S2265
# BRCA1-BRCT domain = experiment: X-ray crystal structure of peptide with BRCA1-BRCT (PDB 8RS8); format: binding, human
# Description: For crystallographic studies, the N-terminal HIS-SUMO tag was removed from the His6-SUMO-BRCA1-BRCT2 by incubation with GST-3C protease (in house) for 12 h at 4 °C. A Superdex 75 16/60 size exclusion column (GE Healthcare) was used to purify the BRCT2 domains to homogeneity in 10 mM HEPES pH 7.5, 200 mM NaCl, 0.5 mM TCEP.
# An unlabelled RIF1 pS2265 peptide (SPGSR(pS)PKFKS) (Peptide Protein Research Ltd, Bishops Waltham, UK) was mixed with the pure BRCA1-BRCT2 domains at a five molar excess prior to concentration to 15 mg/ml for use in crystallisation trials. Crystals grew in condition MORPHEUS E2 (55.5 mM MES, 44.5 mM Imidazole, 120 mM Diethylene glycol, 120 mM Triethylene-glycol, 120 mM Tetraethylene glycol, 120 mM Pentaethylene glycol, 20% (v/v) Ethylene glycol, 10% (w/v) PEG 8000) (Molecular Dimensions) and were looped before flash freezing in liquid nitrogen. Data were collected on beamline I04-1 at the Diamond Synchrotron Lightsource and the structure was determined using PHASER[70] to perform molecular replacement with PDB 4IGK as a search model before refinement using the PHENIX software package. Figures were produced using PyMOL v2.2.2.
# [4] = Chk1i (PF-477736) 1 µM 24 h + HU 4 mM 24 h
# [5] = Fig 4F, Chk1i (PF-477736) 1 µM 24 h + HU 4 mM 24 h
# [6] = Fig S4G (repeat), Chk1i (PF-477736) 1µM + HU 4mM 24hr
# [7] = ATRi (VE-821) 1 µM 24 h + HU 4 mM 24 h
# [8] = Fig 4F, ATRi (VE-821) 1 µM 24 h + HU 4 mM 24 h
# [9] = Fig S4G (repeat), ATRi (VE-821) 1µM + HU 4mM 24hr
# [10] = Fig S4H, ATRi (VE-821) 1µM + HU 4mM 24hr
molecule,measurement,setting,value
Cn1cc(-c2[nH]c3cc(NC(=O)[C@H](N)C4CCCCC4)cc4c3c2C=NNC4=O)cn1 [PF-477736],RIF1-BRCA1 PLA foci formation,[1]; [4],abolished PLA foci formation
same,"RIF1-BRCA1 PLA foci per nucleus, mean",[1]; [5],0.156
same,"RIF1-BRCA1 PLA foci per nucleus, median",[1]; [5],0
same,"RIF1-BRCA1 PLA foci per nucleus, mean",[1]; [6],0.316
same,"RIF1-BRCA1 PLA foci per nucleus, median",[1]; [6],0
same,HU-induced reduction of phosphoS2265 signal,RIF1-L phosphoS2265; [4],partially reversed by Chk1 inhibition
CS(=O)(=O)c1ccc(-c2cnc(N)c(C(=O)Nc3ccccc3)n2)cc1 [VE-821],RIF1-BRCA1 proximity signal,[1]; [7],significantly lowered the RIF1-BRCA1 proximity signal
same,"RIF1-BRCA1 PLA foci per nucleus, mean",[1]; [8],1.672
same,"RIF1-BRCA1 PLA foci per nucleus, median",[1]; [8],1
same,"RIF1-BRCA1 PLA foci per nucleus, mean",[1]; [9],1.661
same,"RIF1-BRCA1 PLA foci per nucleus, median",[1]; [9],1
same,"RIF1-BRCA1 PLA foci per nucleus, mean",[2]; [10],13.09
same,"RIF1-BRCA1 PLA foci per nucleus, median",[2]; [10],12
same,RIF1-BRCA1 PLA,[2]; [7],also reduced RIF1-BRCA1 PLA
same,HU-induced reduction of phosphoS2265 signal,RIF1-L phosphoS2265; [7],reversed by simultaneous ATR inhibition
RIF1-L,BRCA1 nuclear signal mean intensity,BRCA1 nuclear signal; Exp 1,12.65
same,BRCA1 nuclear signal mean intensity,BRCA1 nuclear signal; Exp 2,11.6
same,BRCA1 nuclear signal mean intensity,BRCA1 nuclear signal; Exp 3,10.09
same,Micronuclei per 100,"micronuclei; HU, experiment 14Apr2024",7.605
same,Micronuclei per 100,"micronuclei; HeLa RIF1 KO + GFP-RIF1 derivative cells, HU, experiment 07Jun2024",5.84
same,Micronuclei per 100,"micronuclei; HeLa RIF1 KO + GFP-RIF1 derivative cells, unt, experiment 07Jun2024",3.60
same,Micronuclei per 100,"micronuclei; unt, experiment 14Apr2024",3.159
RIF1-Long (RIF1-L) (from UniProt Q5UIP0) λ phosphatase treated peptide,binding against the reference,[3],lost
"SPGSR[pS]PKFKS [RIF1-L phospho-peptide, unlabelled RIF1 pS2265 peptide used for crystallography]",binding mode in crystal,BRCA1-BRCT domain; MORPHEUS E2,fits within the BRCT pocket of BRCA1 as expected; also recorded: positively charged amino acids K^2267 and K^2269 of RIF1-L lie adjacent to the negatively charged E^1698 BRCA1 residue
same,binding mode in crystal,"BRCA1-BRCT domain; MORPHEUS E2, listed as RIF1-L peptide",found in the canonical phosphate binding pocket of the BRCA1 BRCTs
